Test results from ChEMBL document CHEMBL1201862, “PubChem BioAssay data set” (2004).
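Each compound was tested at five concentrations against cells in 96-well plates for 48 hours. GI50 marks 50% less growth.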 The source made the active and inactive calls. Cut-off read from the data, not from the text of the source: active = GI50 up to about 1.1 µM and inactive = higher.

Assays:
Assay in all cases: inhibition of tumour cell growth, NCI panel, 48 h
SNB-75 = test system: SNB-75
SF-295 = test system: SF-295
NCI-H226 = test system: NCI-H226
OVCAR-4 = test system: OVCAR-4
A498 = test system: A498
HT-29 = test system: HT-29
Hs-578T = test system: Hs-578T
786-0 = test system: 786-0
SK-MEL-28 = test system: SK-MEL-28
Malme-3M = test system: Malme-3M
OVCAR-8 = test system: OVCAR-8
OVCAR-5 = test system: OVCAR-5
K562 = test system: K562
NCI-H460 = test system: NCI-H460
LOX IMVI = test system: LOX IMVI
U-251 = test system: U-251
HOP-92 = test system: HOP-92
UO-31 = test system: UO-31
BT-549 = test system: BT-549

Measured: GI50

Cc1nc(O)c2ncn(CCO)c2n1
inactive: SNB-75 > 100 µM | SF-295 > 100 µM | NCI-H226 > 100 µM | OVCAR-4 > 100 µM | A498 > 100 µM | HT-29 > 100 µM | Hs-578T > 100 µM | 786-0 > 100 µM | SK-MEL-28 > 100 µM | Malme-3M > 100 µM | OVCAR-8 > 100 µM | OVCAR-5 > 100 µM | K562 > 100 µM | NCI-H460 > 100 µM | LOX IMVI > 100 µM | U-251 > 100 µM

COc1cccc(C(=O)C2C(=O)N(C)CCc3ccccc32)c1OC (stereo not drawn)
inactive: SNB-75 > 100 µM | NCI-H226 > 100 µM | OVCAR-4 > 100 µM | HOP-92 > 100 µM | A498 > 100 µM | HT-29 > 100 µM | 786-0 > 100 µM | SK-MEL-28 > 100 µM | Malme-3M > 100 µM | OVCAR-8 > 100 µM | K562 > 100 µM | NCI-H460 > 100 µM | LOX IMVI > 100 µM | UO-31 > 100 µM | U-251 > 100 µM

O=C1CSC(=S)N1 [RHODANINE]
inactive: SNB-75 > 100 µM | SF-295 > 100 µM | NCI-H226 > 100 µM | HOP-92 > 100 µM | Hs-578T > 100 µM | 786-0 > 100 µM | SK-MEL-28 > 100 µM | Malme-3M > 100 µM | OVCAR-8 > 100 µM | OVCAR-5 > 100 µM | K562 > 100 µM | NCI-H460 > 100 µM | LOX IMVI > 100 µM | UO-31 > 100 µM | U-251 > 100 µM

CN(C(=O)CC(=O)CP(=O)(c1ccccc1)c1ccccc1)c1ccccc1
inactive: SNB-75 > 100 µM | SF-295 > 100 µM | NCI-H226 > 100 µM | OVCAR-4 > 100 µM | HT-29 > 100 µM | Hs-578T > 100 µM | 786-0 > 100 µM | SK-MEL-28 > 100 µM | OVCAR-8 > 100 µM | BT-549 > 100 µM | K562 > 100 µM | NCI-H460 > 100 µM | UO-31 > 100 µM | U-251 > 100 µM

O=c1c(Sc2c(SCSc3cnc4ccccc4c3Sc3c[nH]c4ccccc4c3=O)cnc3ccccc23)c[nH]c2ccccc12
inactive: SNB-75 > 100 µM | SF-295 > 100 µM | OVCAR-4 96.6 µM | HOP-92 34 µM | HT-29 > 100 µM | Hs-578T 62.8 µM | 786-0 > 100 µM | SK-MEL-28 22.9 µM | OVCAR-8 > 100 µM | BT-549 > 100 µM | OVCAR-5 > 100 µM | NCI-H460 > 100 µM | LOX IMVI > 100 µM | UO-31 > 100 µM | U-251 25.5 µM

CC(=O)Nc1ccccc1NC1CC(C)N(c2ccccc2)N1C(C)=O (stereo not drawn)
inactive: SNB-75 > 10 µM | SF-295 > 10 µM | OVCAR-4 > 10 µM | HOP-92 > 10 µM | HT-29 > 10 µM | 786-0 > 10 µM | SK-MEL-28 > 10 µM | Malme-3M > 10 µM | OVCAR-8 > 10 µM | K562 > 10 µM

COC(=O)CNC(=O)CSc1nnc(COc2ccc(Cl)cc2)n1-c1ccccc1
inactive: SNB-75 17.3 µM | SF-295 > 100 µM | NCI-H226 47.4 µM | OVCAR-4 > 100 µM | HOP-92 31.8 µM | A498 > 100 µM | HT-29 40.6 µM | 786-0 16.1 µM | SK-MEL-28 26.6 µM | Malme-3M 41.3 µM | OVCAR-8 31 µM | OVCAR-5 56.1 µM | K562 > 100 µM | NCI-H460 56.8 µM | LOX IMVI 31.3 µM | UO-31 27.4 µM | U-251 38.6 µM

CCN(C(=O)N[C@@H](CC(C)C)C(=O)NCC(=O)OC)c1ccccc1
inactive: SNB-75 72.9 µM | SF-295 > 100 µM | NCI-H226 > 100 µM | OVCAR-4 > 100 µM | HOP-92 > 100 µM | HT-29 > 100 µM | 786-0 > 100 µM | SK-MEL-28 38.3 µM | Malme-3M 18 µM | OVCAR-8 > 100 µM | BT-549 > 100 µM | OVCAR-5 > 100 µM | K562 38.4 µM | NCI-H460 85.7 µM | LOX IMVI 44.3 µM | UO-31 > 100 µM | U-251 > 100 µM

COc1cc(C2c3cccc4cccc(c34)C3CCC(=O)N32)cc(O)c1O (stereo not drawn)
inactive: SNB-75 > 50 µM | SF-295 39.9 µM | NCI-H226 > 50 µM | OVCAR-4 12.7 µM | HOP-92 > 50 µM | A498 > 50 µM | HT-29 48.1 µM | 786-0 44.2 µM | SK-MEL-28 33.5 µM | OVCAR-8 27.9 µM | BT-549 > 50 µM | OVCAR-5 > 50 µM | K562 10.8 µM | NCI-H460 36.5 µM | UO-31 28.8 µM | U-251 19 µM

C[N+](C)=c1[nH]c2ccccc2[nH]1
inactive: SNB-75 24.3 µM | SF-295 > 100 µM | OVCAR-4 > 100 µM | HOP-92 > 100 µM | HT-29 > 100 µM | 786-0 > 100 µM | SK-MEL-28 > 100 µM | Malme-3M > 100 µM | OVCAR-8 > 100 µM | OVCAR-5 > 100 µM | K562 > 100 µM | NCI-H460 > 100 µM | LOX IMVI > 100 µM | UO-31 > 100 µM | U-251 > 100 µM

c1ccc(C2=C(c3ccccc3)P(c3ccccc3)C2)cc1 (stereo not drawn)
inactive: SNB-75 32.7 µM | SF-295 41 µM | NCI-H226 53.2 µM | OVCAR-4 > 100 µM | HOP-92 > 100 µM | A498 > 100 µM | HT-29 > 100 µM | Hs-578T 40.5 µM | 786-0 > 100 µM | SK-MEL-28 > 100 µM | Malme-3M 67.1 µM | OVCAR-8 89.7 µM | OVCAR-5 > 100 µM | NCI-H460 92.3 µM | U-251 68.1 µM

N=C(N)n1nc2c(c1O)CCCC2
inactive: SNB-75 14.5 µM | SF-295 > 100 µM | NCI-H226 > 100 µM | OVCAR-4 > 100 µM | A498 8.22 µM | HT-29 > 100 µM | Hs-578T > 100 µM | 786-0 > 100 µM | SK-MEL-28 > 100 µM | Malme-3M > 100 µM | OVCAR-8 > 100 µM | OVCAR-5 > 100 µM | K562 > 100 µM | NCI-H460 > 100 µM | LOX IMVI > 100 µM | UO-31 > 100 µM | U-251 > 100 µM

CCOc1ccccc1N1CSc2nnc(-c3ccccc3)n2C1
inactive: SF-295 > 100 µM | NCI-H226 > 100 µM | OVCAR-4 > 100 µM | HOP-92 > 100 µM | A498 > 100 µM | HT-29 73.3 µM | 786-0 > 100 µM | SK-MEL-28 > 100 µM | Malme-3M > 100 µM | OVCAR-8 > 100 µM | BT-549 > 100 µM | OVCAR-5 > 100 µM | K562 > 100 µM | NCI-H460 > 100 µM | UO-31 > 100 µM | U-251 > 100 µM
